Source: publication PMC7393355, “A FRET-based screening method to detect potential inhibitors of the binding of CNNM3 to PRL2” (Scientific Reports, 2020)
Blank lines part the entries; values can stand above or below the compound they belong to.

Legend:
[1] = system: binding of CNNM3-YPet and CyPet-PRL2 (CNNM3-PRL2 complex); experiment: FRET-based inhibition test of the binding of CNNM3-YPet and CyPet-PRL2; parameters: species or system human; conditions: CNNM3-YPet 200 nM, CyPet-PRL2 200 nM, n = 6
Experimental: FRET measurements were conducted in TBS (50 mM Tris–HCl (pH 8.0) and 150 mM NaCl). Proteins were mixed in 96-well plates and incubated at R.T. for 1 h. Fluorescence intensities were measured using an excitation wavelength of 435 nm and an emission wavelength of 530 nm with a Cytation 3 (BioTek).
The emission spectra were measured with each component at 200 nM using the Cytation 3 (BioTek) with 435 nm excitation (Supplementary Fig. 2), and the original data are shown in Supplementary Table 1. The FRET intensity was calculated by Eq. (1).1 IFRET=IA-raw-Dleakage-Adirect where IA-raw is the intensity measured at 530 nm with 435 nm excitation, Dleakage is the leakage of the donor emission into the acceptor wavelength (530 nm) upon donor excitation, and Adirect is the direct excitation of the acceptor with the donor wavelength (435 nm).
The inhibition of complex formation was assayed by pre-incubating the binding partner (200 nM) with inhibitory factors (1, 10 μM) for 20 min at R.T., followed by addition of the other protein (200 nM) (Figs. 3B, 4C). The effects of divalent cations (10 mM) and nucleotides (3 mM) were also assayed similarly (Fig. 5).
The peptides for the peptide inhibition test were synthesized by Shanghai Dechi Biosciences (Fig. 6C,D). The peptide sequences were as follows: peptide 1, IVQKVNNEGEGDPFYEVLG; peptide 2, […] (an S–S bond was formed between the cysteine residues, as verified by HPLC and mass spectrometry). The peptides were dissolved in TBS buffer at 10 mM before use.
FRET data were evaluated by subtracting backgrounds (fluorescence intensities of CyPet-PRL2, CNNM3-YPet and a blank well). All data analysis was performed using GraphPad Prism 6 (GraphPad Software) with the methods described in each legend.

[2] = system: PRL2; experiment: Isothermal titration calorimetry (ITC) with PRL2; assay type: binding, human; conditions: 25 °C, cell 20 μM PRL2, syringe 200 μM ligand, 20 mM Tris-HCl pH 7.0, 50 mM NaCl, 1 mM TCEP, 2% DMSO, repeated twice
Experimental: ITC experiments were performed by ITC200 (GE Healthcare, USA). PRL2 and CNNM3 CBS domain proteins were purified in Buffer A (20 mM Tris–HCl (pH 7.0), 50 mM NaCl, and 1 mM TCEP). JMS-053 (Aobious, USA) was dissolved in 100% DMSO at 10 mM, further diluted to 200 μM with Buffer A. The ITC cell was thermally equilibrated at 25 °C and then filled with 250 μl of 20 μM PRL2, while the syringe was filled with 40 μl of 200 μM JMS-053 or CNNM3 CBS protein. In the case of JMS-053, 2% DMSO at a final concentration was added into PRL2 protein solution. Data were analysed by Microcal Origin software.

Compound: Nc1ncnc2c1ncn2[C@@H]1O[C@H](COP(=O)(O)OP(=O)(O)O)[C@@H](O)[C@H]1O [ADP, reference compound]
alteration of FRET intensity by nucleotide ([1]; 3 mM nucleotide): 9.6%

Compound: N=C1C(=O)NC(=O)c2cc(-c3ccccc3)sc21 [JMS-053, reference compound]
effect on the interaction between CNNM3 and PRL2 (in words) [1]: no effect
interaction with PRL2 by ITC (in words) [2]: no interaction

Compound: IVQKVNNEGEGDPFYEVLG [peptide 1, shorter synthesized peptide derived from the CNNM CBS loop]
effect of peptide on complex formation (in words) ([1]; peptide 100 μM): failed to interrupt complex formation

Further lines, results first:

effect of divalent cation on FRET intensity (in words) ([1]; 10 mM divalent cation): no effect on the FRET intensity
Compound: [Mg+2] [Mg^2+]

decrease of FRET intensity by divalent cation ([1]; 10 mM divalent cation): 90.3%
Compound: [Zn+2] [Zn^2+]

inhibition of complex formation ([1]; peptide 100 μM): 20%
inhibition of complex formation ([1]; peptide 500 μM): 50%
Compound: LAICQRVNNEGEGDPFYEVCGIVT (an S–S bond was formed between the cysteine residues (disulfide) [peptide 2, longer CNNM CBS loop peptide with two residues mutated to cysteine to form an S–S bond]
